Values joined by “and” are separate entries in the source; they are usually repeats but may differ in a detail not shown here. Equal entries are not always repeated. Inconclusive results and toxic doses are left out. Cut-off read from the data, not from the text of the source: active = T/C of 150% or more; inactive = T/C below 125%.
Tested on: L1210 leukemia ip in BDF1 mice, survival T/C
Assay: NCI In Vivo Anticancer Drug Screen. Data for tumor model L1210 Leukemia (intraperitoneal) in B6D2F1 (BDF1) mice
Details: endpoint: mean survival time, higher = longer survival
In short: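 Tumor cells were implanted, animals were treated, and survival was followed. The result divides the treated measurement by the vehicle-control measurement.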

[1] = dose: 50.0 mg/kg/injection, schedule: Q01DX009 (ip), vehicle: saline with Tween-80
[2] = dose: 100.0 mg/kg/injection, schedule: Q01DX001 (ip), vehicle: saline
[3] = dose: 100.0 mg/kg/injection, schedule: Q01DX009 (ip), vehicle: saline with Tween-80
[4] = dose: 100.0 mg/kg/injection, schedule: Q04DX003 (ip), vehicle: saline
[5] = dose: 200.0 mg/kg/injection, schedule: Q01DX001 (ip), vehicle: saline
[6] = dose: 200.0 mg/kg/injection, schedule: Q04DX003 (ip), vehicle: saline
[7] = dose: 400.0 mg/kg/injection, schedule: Q01DX001 (ip), vehicle: saline
[8] = dose: 100.0 mg/kg/injection, schedule: Q01DX001 (ip), vehicle: carboxymethylcellulose (CMC)
[9] = dose: 100.0 mg/kg/injection, schedule: Q01DX009 (ip), vehicle: Klucel (hydroxypropylcellulose) (HPC)
[10] = dose: 100.0 mg/kg/injection, schedule: Q04DX003 (ip), vehicle: Klucel (hydroxypropylcellulose) (HPC)
[11] = dose: 200.0 mg/kg/injection, schedule: Q01DX001 (ip), vehicle: carboxymethylcellulose (CMC)
[12] = dose: 200.0 mg/kg/injection, schedule: Q01DX009 (ip), vehicle: Klucel (hydroxypropylcellulose) (HPC)
[13] = dose: 200.0 mg/kg/injection, schedule: Q04DX003 (ip), vehicle: Klucel (hydroxypropylcellulose) (HPC)
[14] = dose: 400.0 mg/kg/injection, schedule: Q01DX001 (ip), vehicle: carboxymethylcellulose (CMC)
[15] = dose: 400.0 mg/kg/injection, schedule: Q01DX009 (ip), vehicle: Klucel (hydroxypropylcellulose) (HPC)
[16] = dose: 400.0 mg/kg/injection, schedule: Q04DX003 (ip), vehicle: Klucel (hydroxypropylcellulose) (HPC)

Measured: T/C

CC(C)(C)c1cc([N+](=O)[O-])cc(C(C)(C)C)c1O
inactive: [1] 102 % of control | [2] 96 % of control | [3] 98 % of control | [4] 101 % of control | [5] 94 % of control | [6] 93 % of control | [7] 93 % of control

CC(=O)c1cccc(OC(=O)Nc2ccc(C)cc2)c1
inactive: dose: 100.0 mg/kg/injection, schedule: Q01DX001 (ip), vehicle: gum acacia 89 % of control | dose: 100.0 mg/kg/injection, schedule: Q01DX009 (ip), vehicle: gum acacia 95 % of control and 88 % of control | dose: 100.0 mg/kg/injection, schedule: Q04DX003 (ip), vehicle: gum acacia 98 % of control and 100 % of control | dose: 200.0 mg/kg/injection, schedule: Q01DX001 (ip), vehicle: gum acacia 100 % of control | dose: 200.0 mg/kg/injection, schedule: Q01DX009 (ip), vehicle: gum acacia 98 % of control and 105 % of control | dose: 200.0 mg/kg/injection, schedule: Q04DX003 (ip), vehicle: gum acacia 93 % of control and 90 % of control | dose: 400.0 mg/kg/injection, schedule: Q01DX001 (ip), vehicle: gum acacia 90 % of control | dose: 400.0 mg/kg/injection, schedule: Q01DX009 (ip), vehicle: gum acacia 98 % of control and 109 % of control | dose: 400.0 mg/kg/injection, schedule: Q04DX003 (ip), vehicle: gum acacia 97 % of control and 103 % of control

COC1=C(NCc2ccccc2)C(=O)C(OC)=C(NCc2ccccc2)C1=O
inactive: dose: 50.0 mg/kg/injection, schedule: Q01DX001 (ip), vehicle: carboxymethylcellulose (CMC) 113 % of control | [8] 101 % of control | [9] 92 % of control | [10] 90 % of control | [11] 107 % of control | [12] 95 % of control | [13] 93 % of control | [14] 107 % of control | [15] 92 % of control | [16] 97 % of control

CCOC1c2cc(OC)ccc2C(=O)CCN1S(=O)(=O)c1ccc(C)cc1 (stereo not given)
inactive: [10] 92 % of control | [13] 91 % of control | [16] 96 % of control

O=C1NC(c2ccccc2)(c2ccccc2)C(O)N1CCO (stereo not given)
inactive: dose: 100.0 mg/kg/injection, schedule: Q04DX003 (ip), vehicle: saline with Tween-80 101 % of control | dose: 200.0 mg/kg/injection, schedule: Q04DX003 (ip), vehicle: saline with Tween-80 101 % of control | dose: 400.0 mg/kg/injection, schedule: Q04DX003 (ip), vehicle: saline with Tween-80 98 % of control

CC1(C)COC(CC2CCCCC2)=N1
inactive: dose: 25.0 mg/kg/injection, schedule: Q01DX009 (ip), vehicle: saline with Tween-80 105 % of control | [1] 102 % of control | dose: 50.0 mg/kg/injection, schedule: Q04DX003 (ip), vehicle: saline 94 % of control | [3] 102 % of control | [4] 91 % of control | dose: 200.0 mg/kg/injection, schedule: Q01DX009 (ip), vehicle: saline with Tween-80 96 % of control | [6] 86 % of control

O=C1c2ccccc2C(=O)c2c(O)c(N3CCCCC3)cc(O)c21
inactive: dose: 100.0 mg/kg/injection, schedule: Q01DX009 (ip), vehicle: saline 91 % of control | [4] 88 % of control | dose: 200.0 mg/kg/injection, schedule: Q01DX009 (ip), vehicle: saline 89 % of control | [6] 88 % of control | dose: 400.0 mg/kg/injection, schedule: Q01DX009 (ip), vehicle: saline 94 % of control | dose: 400.0 mg/kg/injection, schedule: Q04DX003 (ip), vehicle: saline 92 % of control

OB(O)C1=CC(c2ccccc2)(c2ccccc2)N=C1
inactive: dose: 100.0 mg/kg/injection, schedule: Q01DX001 (ip), vehicle: Klucel (hydroxypropylcellulose) (HPC) 103 % of control | dose: 200.0 mg/kg/injection, schedule: Q01DX001 (ip), vehicle: Klucel (hydroxypropylcellulose) (HPC) 94 % of control | dose: 400.0 mg/kg/injection, schedule: Q01DX001 (ip), vehicle: Klucel (hydroxypropylcellulose) (HPC) 92 % of control

Cc1ccc(N=C(c2ccccc2)c2ccc([N+](=O)[O-])cc2)cc1
inactive: [9] 98 % of control | [10] 105 % of control | [12] 101 % of control | [13] 93 % of control | [15] 103 % of control | [16] 102 % of control

CCOC(=O)CCCN(c1ccccc1)S(=O)(=O)c1ccc(C)cc1
inactive: [8] 93 % of control | [11] 96 % of control | [14] 107 % of control

CS(=O)(=O)NC[C@H](Cl)[C@@H](Cl)CNS(C)(=O)=O
inactive: [2] 100 % of control | [5] 102 % of control | [7] 91 % of control

— PubChem BioAssay AID248 (DTP/NCI, 2004)
